Experimental data reported in patent publication US11820776B2, “Process for the preparation of Remimazolam and solid state forms of Remimazolam salts” (WATSON LABORATORIES INC., priority 2017, dated 2023).

Tests used:
Assay type in all cases: physicochemical
[1] = Solid state stability at 80% relative humidity in open Petri dish; details: 80% relative humidity (RH), room temperature (RT)
Kinetic water solubility = details: comparator not stated
[2] = Solubility in various pH ranges; details: comparator not stated
[3] = Compressibility properties; details: compared to Remimazolam besylate; may indicate better flow properties
Bulk density = details: compared to Remimazolam besylate

## Br.COC(=O)CC[C@@H]1N=C(c2ccccn2)c2cc(Br)ccc2-n2c(C)cnc21 [Form 1 of Remimazolam Mono hydrobromide]
[1]
  period for which the crystalline form is stable: at least 24 hours
Kinetic water solubility
  kinetic water solubility: improved
[2]
  solubility in various pH ranges: improved

## CC1(C)C2CCC1(CS(=O)(=O)O)C(=O)C2.COC(=O)CC[C@@H]1N=C(c2ccccn2)c2cc(Br)ccc2-n2c(C)cnc21 [Form 2 of Remimazolam Camphor Sulfonate]
[3]
  compressibility properties: improved
[1]
  period for which the crystalline form is stable: at least 24 hours
Bulk density
  bulk density: higher

## COC(=O)CC[C@@H]1N=C(c2ccccn2)c2cc(Br)ccc2-n2c(C)cnc21.CS(=O)(=O)O [Form 2 of Remimazolam Methane Sulfonate]
[1]
  period for which the crystalline form is stable: at least 24 hours
Kinetic water solubility
  kinetic water solubility: improved
[2]
  solubility in various pH ranges: improved
